Target: T1, A2BARs (rat cortical neurons) (Rattus norvegicus, UniProt P29276)
T1 construct: gene Adora2b; native receptor in membranes of primary cortical neurons from day-18 rat embryos
T1 sequence (P29276 1-332): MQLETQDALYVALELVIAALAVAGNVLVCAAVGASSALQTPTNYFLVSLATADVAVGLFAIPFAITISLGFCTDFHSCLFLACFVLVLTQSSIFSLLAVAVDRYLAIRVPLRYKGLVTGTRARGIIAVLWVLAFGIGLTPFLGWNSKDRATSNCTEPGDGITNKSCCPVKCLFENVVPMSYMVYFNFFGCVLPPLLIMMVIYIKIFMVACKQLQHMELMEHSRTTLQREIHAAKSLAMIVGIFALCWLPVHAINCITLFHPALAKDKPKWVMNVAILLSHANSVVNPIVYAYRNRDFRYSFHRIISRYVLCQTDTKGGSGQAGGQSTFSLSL
Assay: radioligand saturation binding, membranes
Conditions: rat cortical neuron membranes, no PEMF; labelled compound
Text: radioligand saturation binding, membranes on A2BARs (rat cortical neurons)

- Kd: 1.52 ± 0.11 nM
SMILES: CCCn1c(=O)c2[nH]c(-c3cc(OCC(=O)Nc4ccc5c(c4)OCO5)nn3C)nc2n(CCC)c1=O [[3H]-MRE 2029F20, [^3H]-N-benzo [1], [3]dioxol-5-yl-2-[5-(2,6-dioxo-1,3-dipropyl-2,3,6,7-tetrahydro-1H-purin-8-yl)-1-methy-1H-pyrazol-3-yl-oxy]-acetamide]
